# Patent US20210255193A1, “LYSINE REACTIVE PROBES AND USES THEREOF” (The Scripps Research Institute, priority 2017, published 2021)
# Experiments:
# Assay in all cases: competitive isoTOP-ABPP
# Type in all cases: binding
# [1] = target: T1, GABARAPL2 Gamma-aminobutyric acid receptor-associated protei (Homo sapiens, UniProt P60520); settings: 50 uM, 231 sol, in vitro; for R value (DMSO/fragment) for probe 1 labeling: P60520_K46
# T1 construct: isoTOP-ABPP experiments performed in cell lysates (in vitro); endogenous in cells; host or cells: soluble proteome of human cancer cell lines (MDA-MB-231, Ramos, Jurkat)
# Method in brief: (§1)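 Probe: STP-alkyne, 0.1 mM, 1 h RT, after fragment pretreatment of lysate (esters 50 μM; guanidinylators 100 μM). Tags: light = compound, heavy = DMSO, via CuAAC. Replicates averaged if SD <60% of mean; otherwise lowest ratio used when any R <4.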
# [2] = target: T2, NUDT22 Nucleoside diphosphate-linked moiety X motif 22 (Homo sapiens, UniProt Q9BRQ3); settings: 50 uM, 231 sol, in vitro; for R value (DMSO/fragment) for probe 1 labeling: Q9BRQ3_K60
# T2 construct: isoTOP-ABPP experiments performed in cell lysates (in vitro); endogenous in cells; host or cells: soluble proteome of human cancer cell lines (MDA-MB-231; Ramos and Jurkat also prepared)
# T2 sequence (Q9BRQ3 1-303): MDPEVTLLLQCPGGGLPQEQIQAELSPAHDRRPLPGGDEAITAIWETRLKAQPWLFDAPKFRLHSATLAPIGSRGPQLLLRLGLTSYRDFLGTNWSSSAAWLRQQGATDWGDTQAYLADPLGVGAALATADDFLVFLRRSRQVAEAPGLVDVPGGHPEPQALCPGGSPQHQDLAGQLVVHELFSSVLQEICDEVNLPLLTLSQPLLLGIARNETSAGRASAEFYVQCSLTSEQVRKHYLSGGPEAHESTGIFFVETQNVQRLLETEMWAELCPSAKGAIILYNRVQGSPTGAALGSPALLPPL
# Method in brief: as §1
# [3] = target: T3, CDK2 Cyclin-dependent kinase 2 (Homo sapiens, UniProt P24941); settings: P24941_K33; 50 uM, 231 sol, in vitro
# T3 construct: isoTOP-ABPP experiments performed in cell lysates (in vitro); endogenous in cells; host or cells: soluble proteome of human cancer cell lines (MDA-MB-231; Ramos and Jurkat also prepared)
# Method in brief: as §1
# [4] = target: T4, AKR1C3 Aldo-keto reductase family 1 member C3 (Homo sapiens, UniProt P42330); settings: 50 uM, 231 sol, in vitro
# T4 construct: isoTOP-ABPP experiments performed in cell lysates (in vitro); endogenous in cells; host or cells: soluble proteome of human cancer cell lines (MDA-MB-231; Ramos and Jurkat also prepared)
# T4 sequence (P42330 1-323): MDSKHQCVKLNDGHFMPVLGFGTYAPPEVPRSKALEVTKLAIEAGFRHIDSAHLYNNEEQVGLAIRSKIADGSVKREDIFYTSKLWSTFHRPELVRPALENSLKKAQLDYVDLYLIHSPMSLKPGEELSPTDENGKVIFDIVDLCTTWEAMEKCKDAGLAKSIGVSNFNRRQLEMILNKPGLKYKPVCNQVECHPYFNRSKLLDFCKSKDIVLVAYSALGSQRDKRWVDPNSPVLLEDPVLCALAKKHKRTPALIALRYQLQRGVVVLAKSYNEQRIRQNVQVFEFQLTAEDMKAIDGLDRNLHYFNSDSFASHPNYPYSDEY
# Method in brief: as §1
# [5] = target: T5, ATP6V1F V-type proton ATPase subunit F (Homo sapiens, UniProt Q16864); settings: 50 uM, 231 sol, in vitro; for R value (DMSO/fragment) for probe 1 labeling: Q16864_K6
# T5 construct: isoTOP-ABPP experiments performed in cell lysates (in vitro); endogenous in cells; host or cells: soluble proteome of human cancer cell lines (MDA-MB-231; Ramos and Jurkat also prepared)
# Method in brief: as §1
# [6] = target: T6, IMPDH1 Inosine-5-monophosphate dehydrogenase 1 (Homo sapiens, UniProt P20839); settings: 50 uM, 231 sol, in vitro
# T6 construct: isoTOP-ABPP experiments performed in cell lysates (in vitro); endogenous in cells; host or cells: soluble proteome of human cancer cell lines (MDA-MB-231; Ramos and Jurkat also prepared)
# Method in brief: as §1
# T1 sequence (P60520 1-116 limits assumed): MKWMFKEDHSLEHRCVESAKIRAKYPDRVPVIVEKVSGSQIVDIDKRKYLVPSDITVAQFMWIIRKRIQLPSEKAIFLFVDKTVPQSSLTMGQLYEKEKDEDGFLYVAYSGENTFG
# T5 sequence (Q16864 whole entry, the tested form may be a part): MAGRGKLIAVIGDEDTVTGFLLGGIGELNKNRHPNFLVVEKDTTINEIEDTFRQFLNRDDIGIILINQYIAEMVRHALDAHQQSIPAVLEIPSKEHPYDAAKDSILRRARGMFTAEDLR
# T6 sequence (P20839 whole entry): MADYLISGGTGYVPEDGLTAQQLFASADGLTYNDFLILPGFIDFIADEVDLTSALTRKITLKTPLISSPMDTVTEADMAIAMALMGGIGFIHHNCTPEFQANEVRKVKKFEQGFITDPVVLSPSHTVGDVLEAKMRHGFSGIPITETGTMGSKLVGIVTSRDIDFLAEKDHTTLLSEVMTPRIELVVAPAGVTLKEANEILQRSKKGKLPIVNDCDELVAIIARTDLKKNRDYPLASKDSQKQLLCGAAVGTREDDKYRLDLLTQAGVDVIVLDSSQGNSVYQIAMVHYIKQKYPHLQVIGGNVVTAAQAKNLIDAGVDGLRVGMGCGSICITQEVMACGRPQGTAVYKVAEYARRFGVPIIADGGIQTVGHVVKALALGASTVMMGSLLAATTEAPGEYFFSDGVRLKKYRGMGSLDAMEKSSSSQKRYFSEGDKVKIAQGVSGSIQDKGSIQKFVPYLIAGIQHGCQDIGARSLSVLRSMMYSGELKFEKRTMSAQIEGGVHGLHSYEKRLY
compound,measurement,setting,value
"O=C(CCc1cn(-c2ccccc2)nc1-c1ccccc1)Oc1c(F)c(F)c(F)c(F)c1F [fragment 19, Pentafluorophenyl 3-(1,3-diphenyl-1H-pyrazol-4-yl)propanoate]",R value (DMSO/fragment) for probe 1 labeling,[1],1.2
same,R value (DMSO/fragment) for probe 1 labeling,[2],0.9
"O=C(Oc1c(F)c(F)c(F)c(F)c1F)C(c1ccccc1)c1ccccc1 [fragment 20, Pentafluorophenyl 2,2-diphenylacetate]",R value (DMSO/fragment) for probe 1 labeling,[1],0.9
same,R value (DMSO/fragment) for probe 1 labeling,[3],0.9
same,R value (DMSO/fragment) for probe 1 labeling,[2],0.8
same,R value (DMSO/fragment) for probe 1 labeling,[4]; P42330_K270,1.4
same,R value (DMSO/fragment) for probe 1 labeling,[5],1.1
"O=C(Oc1c(F)c(F)c(F)c(F)c1F)c1cc(C(F)(F)F)cc(C(F)(F)F)c1 [fragment 21, Pentafluorophenyl 3,5-bis(trifluoromethyl)benzoate]",R value (DMSO/fragment) for probe 1 labeling,[1],0.8
same,R value (DMSO/fragment) for probe 1 labeling,[3],1.0
same,R value (DMSO/fragment) for probe 1 labeling,[2],0.8
same,R value (DMSO/fragment) for probe 1 labeling,[5],1.1
"Cn1cc(CC(=O)Oc2c(F)c(F)c(F)c(F)c2F)c2ccccc21 [fragment 22, Pentafluorophenyl 2-(1-methyl-1H-indol-3-yl)acetate]",R value (DMSO/fragment) for probe 1 labeling,[1],0.8
same,R value (DMSO/fragment) for probe 1 labeling,[3],1.5
same,R value (DMSO/fragment) for probe 1 labeling,[5],1.1
"O=C(Oc1c(F)c(F)c(F)c(F)c1F)C1CCN(C(=O)OCc2ccccc2)CC1 [fragment 24, 1-Benzyl 4-(pentafluorophenyl) piperidine-1,4-dicarboxylate]",isoTOP-ABPP reactivity ratio at lysine P42330_K270,[4],4.2
"O=C(Oc1c(F)c(F)c(F)c(F)c1F)c1ccc2ccccc2n1 [fragment 25, Pentafluorophenyl quinoline-2-carboxylate]",isoTOP-ABPP reactivity ratio at lysine P60520_K46,[1],1.2
same,isoTOP-ABPP reactivity ratio at lysine Q9BRQ3_K60,[2],0.8
"O=C(CCc1coc2cc(F)ccc2c1=O)Oc1c(F)c(F)c(F)c(F)c1F [fragment 26, Pentafluorophenyl 3-(7-fluoro-4-oxo-4H-chromen-3-yl)propanoate]",isoTOP-ABPP reactivity ratio at lysine Q9BRQ3_K60,[2],0.8
"O=C(CN1C(=O)c2ccccc2C1=O)Oc1c(F)c(F)c(F)c(F)c1F [fragment 27, Pentafluorophenyl 2-(1,3-dioxoisoindolin-2-yl)acetate]",isoTOP-ABPP reactivity ratio at lysine Q9BRQ3_K60,[2],1.2
same,isoTOP-ABPP reactivity ratio at lysine P42330_K270,[4],2.7
"CCn1cc(C(=O)Oc2c(F)c(F)c(F)c(F)c2F)c(=O)c2ccc(C)nc21 [fragment 28, Pentafluorophenyl 1-ethyl-7-methyl-4-oxo-1,4-dihydro-1,8-naphthyridine-3-carboxylate]",isoTOP-ABPP reactivity ratio at lysine Q9BRQ3_K60,[2],1.0
same,isoTOP-ABPP reactivity ratio at lysine P42330_K270,[4],1.8
"O=C(Oc1ccc([N+](=O)[O-])cc1[N+](=O)[O-])C(c1ccccc1)c1ccccc1 [fragment 30, 2,4-Dinitrophenyl 2,2-diphenylacetate]",isoTOP-ABPP reactivity ratio at lysine P20839_K208,[6],1.6
same,isoTOP-ABPP reactivity ratio at lysine Q16864_K6,[5],20.0
"O=C(Oc1ccc([N+](=O)[O-])cc1[N+](=O)[O-])c1cc(C(F)(F)F)cc(C(F)(F)F)c1 [fragment 31, 2,4-Dinitrophenyl 3,5-bis(trifluoromethyl)benzoate]",isoTOP-ABPP reactivity ratio at lysine P60520_K46,[1],1.2
same,isoTOP-ABPP reactivity ratio at lysine Q9BRQ3_K60,[2],1.1
"Cn1cc(CC(=O)Oc2ccc([N+](=O)[O-])cc2[N+](=O)[O-])c2ccccc21 [fragment 32, 2,4-Dinitrophenyl 2-(1-methyl-1H-indol-3-yl)acetate]",isoTOP-ABPP reactivity ratio at lysine P60520_K46,[1],1.1
same,isoTOP-ABPP reactivity ratio at lysine Q9BRQ3_K60,[2],20.0
